Test results as given in PubChem BioAssay AID1549 (Sanford-Burnham Center for Chemical Genomics, 2009).
Calls of active or inactive are those of the source. The rule behind the calls is not given here.

The compounds below were run against Influenza A virus M2 proton channel (A/TW/4845/1999 H1N1) (assay: NMR binding screen, influenza A virus M2 proton channel, Kd (AID 1549)). Settings: M2 protein.

Row | SMILES | Kd
1 | O=c1c2ccccc2[nH]c2ncccc12 | > 4 mM (inactive)
2 | Cc1nc2ccc(C(=O)O)cc2nc1C | > 4 mM (inactive)
3 | CS(=O)(=O)Nc1cc2c3c(c1)CCN3C(=O)CC2 | > 4 mM (inactive)
4 | Cc1cccc(NC(=O)Nc2cc(C)on2)c1 | > 4 mM (inactive)
5 | O=C(O)c1csc(-c2ccccc2)n1 | > 4 mM (inactive)
6 | COC(=O)C[C@H]1C(C)(C)C(=O)[C@@H]2CC3=C4CC(=O)O[C@@H](c5ccoc5)[C@]4(C)CCC3C1(C)C2=O (stereo partly drawn) | > 4 mM (inactive)
7 | NC(=O)CC1Nc2cccc3cccc(c23)NC1=O (stereo not drawn) | > 4 mM (inactive)
8 | COc1ccc(-c2coc3cc(OC)cc(OC)c3c2=O)cc1 | > 4 mM (inactive)
9 | O=C(/C=C/c1ccc(O)cc1)c1ccc(O)cc1O | > 4 mM (inactive)
10 | O=C(Nc1ccon1)c1csc2ccccc12 | > 4 mM (inactive)
11 | NC(=O)Nc1cccc(C(F)(F)F)c1 | > 4 mM (inactive)
12 | CSc1nnc2[nH]c(=O)cc(N)n12 | > 4 mM (inactive)
13 | O=C1CCCC(=O)N1c1ccc(O)cc1 | > 4 mM (inactive)
14 | CSc1nc(-c2ccco2)nn1S(C)(=O)=O | > 4 mM (inactive)
15 | COc1cc2c(cc1OC)C1Cc3ccc(OC)c(OC)c3CN1CC2 (stereo not drawn) | > 4 mM (inactive)
16 | Nc1ccc(S(=O)(=O)N2CCCCC2)cc1 | > 4 mM (inactive)
17 | COC(=O)C[C@@H]1C2(C)C(=O)[C@@H](CC3=C4CC(=O)O[C@@H](c5ccoc5)[C@]4(C)CCC32)[C@H](OC(C)=O)C1(C)C (stereo partly drawn) | > 4 mM (inactive)
18 | CC(=O)NC12CC3CC(C)(C1)CC(NC(C)=O)(C3)C2 | > 4 mM (inactive)
19 | CC1(C)C(=O)C=C[C@@]2(C)C1C=C[C@]1(C)C2CC[C@@]2(C)[C@H](c3ccoc3)OC(=O)C3OC321 (stereo partly drawn) | > 4 mM (inactive)
20 | CC(=O)Nc1ccc(N2C(=O)C=CC2=O)cc1C | > 4 mM (inactive)
21 | NC(=O)c1ccc(N2C(=O)CCC2=O)cc1Cl | > 4 mM (inactive)
22 | O=C(O)Cn1cc(C(F)(F)F)ccc1=O | > 4 mM (inactive)
23 | NCCC(=O)N[C@@H](Cc1cnc[nH]1)C(=O)O | > 4 mM (inactive)
24 | O=C(O)c1ccccc1N1CCOCC1 | > 4 mM (inactive)

Row | SMILES | Kd
25 | S=C(Nc1ccccc1)Nc1nncs1 | > 4 mM (inactive)
26 | Cc1cc(C(=O)Nc2ccccn2)no1 | > 4 mM (inactive)
27 | O=S1(=O)C=CC(Nc2ccccc2)C1 (stereo not drawn) | > 4 mM (inactive)
28 | Cc1cc(N)n(C2CCOC(C)(C)C2)n1 (stereo not drawn) | > 4 mM (inactive)
29 | O=C(Cc1cccs1)Nc1nncs1 | > 4 mM (inactive)
30 | O=c1cnnc(Nc2ccc(O)cc2)[nH]1 | > 4 mM (inactive)
31 | NC(=O)C12CC3CC(C1)C(=O)C(C3)C2 | > 4 mM (inactive)
32 | Cc1cc(C(=O)NCc2ccccc2Br)no1 | > 4 mM (inactive)
33 | CC(=O)Nc1nc(C)c(C(C)=O)s1 | > 4 mM (inactive)
34 | CC(C)Oc1ccc(NC(N)=O)cc1 | > 4 mM (inactive)
35 | Cc1cc(=O)cc(C)n1NC(N)=S | > 4 mM (inactive)
36 | NC(=O)CS(=O)(=O)c1ccc(Cl)cc1 | > 4 mM (inactive)
37 | O=C(O)c1cnc2n(c1=O)CCS2 | > 4 mM (inactive)
38 | CC(C)NS(=O)(=O)c1ccc(N)cc1 | > 4 mM (inactive)
39 | CCOC(=O)C1C(=O)C2CCN1CC2 (stereo not drawn) | > 4 mM (inactive)
40 | CC1CCC2(OC1)OC1CC3C4CC[C@H]5C[C@@H](O)CC[C@]5(C)C4CC(=O)[C@]3(C)C1C2C (stereo partly drawn) | > 4 mM (inactive)
41 | CC1(C)C=Cc2cc3ccc(=O)oc3cc2O1 | > 4 mM (inactive)
42 | Nc1nc(-c2ccccc2)cc(=O)[nH]1 | > 4 mM (inactive)
43 | Cc1ccc2c(C)c(C(=O)Nc3nnc(C)s3)oc2c1 | > 4 mM (inactive)
44 | COc1ccc2cc3[n+](cc2c1OC)CCc1cc2c(cc1-3)OCO2 | > 4 mM (inactive)
45 | COc1ccccc1-c1noc(-c2ccncc2)n1 | > 4 mM (inactive)
46 | CC(=O)c1cccc(NC2=NCC(C)(C)S2)c1 | > 4 mM (inactive)
47 | COc1ccccc1NC(=O)NC(N)=O | > 4 mM (inactive)
48 | Cc1cc(=O)oc2cc3c(cc12)OCCO3 | > 4 mM (inactive)

Row | SMILES | Kd
49 | O=c1cc(-c2ccc(O)cc2)oc2cc(O[C@@H]3O[C@H](CO)[C@@H](O)[C@H](O)[C@H]3O[C@@H]3OC[C@](O)(CO)[C@H]3O)cc(O)c12 | > 4 mM (inactive)
50 | CC(=O)O[C@@H]1CC2C(C)(C)C(=O)C=C[C@]2(C)C2CC[C@]3(C)C(=CC(=O)O[C@H]3c3ccoc3)[C@@]21C (stereo partly drawn) | > 4 mM (inactive)
51 | COc1ccc2nc(NC(=O)c3cnccn3)sc2c1 | > 4 mM (inactive)
52 | CC(=O)Oc1ccc2c(c1OC(C)=O)OCC1(O)Cc3c(cc(OC(C)=O)c(OC(C)=O)c3OC(C)=O)C21 (stereo not drawn) | > 4 mM (inactive)
53 | c1csc(-c2nnc3ccccn23)c1 | > 4 mM (inactive)
54 | O=C(c1cnsn1)N1CCN(c2ccccc2)CC1 | > 4 mM (inactive)
55 | NCc1n[nH]c(=O)c2ccccc12 | > 4 mM (inactive)
56 | CC1=CC(C)C(C(=O)O)C(C(=O)N2CCN(C)CC2)C1 (stereo not drawn) | > 4 mM (inactive)
57 | CC(C)NC1CS(=O)(=O)CC1O (stereo not drawn) | > 4 mM (inactive)
58 | CN1C(=O)Cc2cc(S(N)(=O)=O)ccc21 | > 4 mM (inactive)
59 | CNc1ccccc1C(=O)O | > 4 mM (inactive)
60 | O=C1CSC(=O)N1c1cccc(O)c1 | > 4 mM (inactive)
61 | Cc1cc(SCC(=O)c2ccccc2)nc(=O)[nH]1 | > 4 mM (inactive)
62 | CC(=O)CS(=O)(=O)c1ccccc1 | > 4 mM (inactive)
63 | C/C=C(/C)C(=O)O[C@@H]1Cc2c(ccc3ccc(=O)oc23)OC1(C)C | > 4 mM (inactive)
64 | CC(=O)O[C@H]1CC[C@@]2(C)C(=CC(=O)C3C4CCC(C(C)CCCC(C)C)[C@@]4(C)CCC32)C1 (stereo partly drawn) | > 4 mM (inactive)
65 | O=C(Nn1cnnc1)c1ccccc1-c1ccccc1 | > 4 mM (inactive)
66 | CN1CCN(CC(=O)NC2CCCCC2)CC1 | > 4 mM (inactive)
67 | Nc1nc2ccccc2n1CCN1CCCC1 | > 4 mM (inactive)
68 | S=c1[nH]nc(-c2cccnc2)n1Cc1ccccc1 | > 4 mM (inactive)
69 | OCc1ccccc1O[C@@H]1O[C@H](CO)[C@@H](O)[C@H](O)[C@H]1O | > 4 mM (inactive)
70 | O=C1CCC(C(=O)NCc2cccnc2)N1 (stereo not drawn) | > 4 mM (inactive)
71 | CS(=O)(=O)NC1CCN(Cc2ccccc2)CC1 | > 4 mM (inactive)
72 | O=C(c1ccncc1)N1CCN(C(=O)c2ccco2)CC1 | > 4 mM (inactive)

Row | SMILES | Kd
73 | Cn1cnnc1SCC(=O)Nc1nccs1 | > 4 mM (inactive)
74 | Cc1csc(SCC(=O)N2CCCC2)n1 | > 4 mM (inactive)
75 | NC(Cn1ccc(=O)c(O)c1)C(=O)O (stereo not drawn) | > 4 mM (inactive)
76 | Cn1ncc(CO)c1-c1ccccc1 | > 4 mM (inactive)
77 | Cc1cc(C)c(-c2cc(C(F)(F)F)no2)c(=O)[nH]1 | > 4 mM (inactive)
78 | CC1(C)CC(NC(=O)/C=C/C(=O)O)CC(C)(C)N1 | > 4 mM (inactive)
79 | O=C1NC(=O)/C(=C/c2ccc(O)cc2)N1 | > 4 mM (inactive)
80 | Nc1cccc2cccnc12 | > 4 mM (inactive)
81 | CSc1ccccc1NC(=O)c1cccnc1 | > 4 mM (inactive)
82 | C=CCc1ccc2c(c1)OCO2 | > 4 mM (inactive)
83 | Cc1nc2c(n1O)CCc1c-2no[n+]1[O-] | > 4 mM (inactive)
84 | O=C(O)C1(S(=O)(=O)c2ccccc2)CC1 | > 4 mM (inactive)
85 | CC(C)=NNC(=O)C(=O)NC(C)(C)C | > 4 mM (inactive)
86 | Cc1ccc(NC(=O)C2CCN(S(C)(=O)=O)CC2)cc1 | > 4 mM (inactive)
87 | OCc1csc(-c2ccccc2)n1 | > 4 mM (inactive)
88 | Nc1ncnc2c1ncn2CCOc1ccccc1 | > 4 mM (inactive)
89 | COC(=O)c1ccc(N2CCOCC2)nc1 | > 4 mM (inactive)
90 | COc1c(-c2coc3cc4c(cc3c2=O)CC(OC(C)=O)C(C)(C)O4)ccc2c1C=CC(C)(C)O2 (stereo not drawn) | > 4 mM (inactive)
91 | Cc1occc1C(=O)NC1CCN(C)CC1 | > 4 mM (inactive)
92 | O=C1NC(=S)S/C1=C/c1ccncc1 | > 4 mM (inactive)
93 | C/C=C/C(=O)Nc1ccc(NC(C)=O)cc1 | > 4 mM (inactive)
94 | CC(=O)Nc1nnc(-c2ccccc2S(C)(=O)=O)o1 | > 4 mM (inactive)
95 | COc1cccc(/C=N/N=C2/NC(=O)CS2)c1 | > 4 mM (inactive)
96 | N#Cc1c(N)c(C(=O)c2ccccc2)n2c1CCC2 | > 4 mM (inactive)

Row | SMILES | Kd
97 | Cc1cc(C)n(CCC(=O)O)n1 | > 4 mM (inactive)
98 | NC(=O)c1ccc(NC(=O)C2CC2)cc1 | > 4 mM (inactive)
99 | Cn1c(=O)cc(O)c2ccccc21 | > 4 mM (inactive)
100 | Cc1cc(NS(=O)(=O)Cc2ccccc2)no1 | > 4 mM (inactive)
101 | O=C(Cc1cccs1)Nc1ccon1 | > 4 mM (inactive)
102 | NC(=O)C1CCN(C2CC(=O)NC2=O)CC1 (stereo not drawn) | > 4 mM (inactive)
103 | O=C(/C=C/c1ccccc1)NC1CCS(=O)(=O)C1 (stereo not drawn) | > 4 mM (inactive)
104 | Nc1ccc2c(c1)S(=O)(=O)C=C2 | > 4 mM (inactive)
105 | Cc1ccccc1NC(=O)C1CCC(=O)N1 (stereo not drawn) | > 4 mM (inactive)
106 | Cc1cc(O)cc(=O)n1CCCC(=O)O | > 4 mM (inactive)
107 | CN1C(=O)N(C)C2NC(=O)NC21 (stereo not drawn) | > 4 mM (inactive)
108 | CC(=O)OC/C=C(\C)CC/C=C(\C)CC/C=C(\C)CC/C=C(\C)CC/C=C(\C)CC/C=C(\C)CC/C=C(\C)CC/C=C(\C)CCC=C(C)C | > 4 mM (inactive)
109 | NN1C(=O)CSC1=Nc1ccccc1 | > 4 mM (inactive)
110 | CN(C)C1CCS(=O)(=O)C1 (stereo not drawn) | > 4 mM (inactive)
111 | NCc1csc2ccccc12 | > 4 mM (inactive)
112 | CC(=O)Nc1ccc(C(=O)NC2CCSC2=O)cc1 (stereo not drawn) | > 4 mM (inactive)
113 | C[C@]12CC(=O)C3C(CC[C@@H]4C[C@H](O)CC[C@]34C)C1CC[C@]2(O)C(=O)CO (stereo partly drawn) | > 4 mM (inactive)
114 | NCC1COc2ccccc2O1 (stereo not drawn) | > 4 mM (inactive)
115 | N=C1/C(=C\c2ccco2)C(=O)N=C2SC=NN12 | > 4 mM (inactive)
116 | CS(=O)(=O)N1CCN(C(=O)c2ccccc2)CC1 | > 4 mM (inactive)
117 | CC(=O)Nc1cccc(Cn2cccn2)c1 | > 4 mM (inactive)
118 | c1ccc2c(c1)ncn2CCn1cnc2ccccc21 | > 4 mM (inactive)
